# Patent US20070185211A1, “Crystal forms of cinacalcet HCI and processes for their preparation” (priority 2005, published 2007)
# Assay: Crystal form after drying/heating at 50° C. (solid state stability of the polymorph)
# Format: physicochemical
# Procedure: X-Ray powder diffraction data were obtained using a SCINTAG powder X-Ray diffractometer model X'TRA equipped with a solid state detector and a variable gonimeter. Copper radiation of 1.5418 Å was used. A round standard aluminum sample holder with round zero background, and cavity of 25(diameter)*0.5(dept) mm. Scanning parameters range of: 2-40 deg. 2θ and continuous scan rate of 3 deg./min.
# 0.62 gr of Cinacalcet HCl was dissolved in Chloroform (6 ml) at room temperature. […] The slurry was stirred at room temperature for 4 minutes. […]
smiles,measurement,setting,value
"C[C@@H](NCCCc1cccc(C(F)(F)F)c1)c1cccc2ccccc12.Cl [Cinacalcet HCl crystal form III, (R)-α-methyl-N-[3-[3-(trifluoromethyl)phenyl]propyl]-1-naphthalenemethane amine]",crystalline structure after drying,dried at 50° C. for 24 hours,maintained as form III
same,crystal form obtained after heating,heated at 50° C. under vacuum for 22 hours,form I was obtained
